Tested on: PANC-1 complex spheroid growth, percent test/control
Test: Anticancer human tumor PANC-1 cell line growth inhibition [Asc];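 note: spheroids exposed to agents for 7 days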;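 for viability, T/C: percent viability relative to DMSO vehicle wells taken as 100%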
Conditions: for IC50: curve of first compound; for viability, T/C: stronger effect = lower value
Protocol: Multicellular complex tumor spheroid response to apoptosis pathway targeting inhibitors Alrizomadlin, Pelcitoclax, and Dasminapant in combination with a variety of drugs and investigational agents in selected tumor cell lines
The MDM2 inhibitor alrizomadlin, the Bcl-2/Bcl-xL inhibitor pelcitoclax, and the IAPs inhibitor dasminapant were evaluated both individually and in combination with standard of care and investigational anticancer small molecules within a complex spheroid model of solid tumors. . Complex spheroids include a stromal component modeled by human endothelial cells (HUVEC) and fibroblasts modeled by human mesenchymal stem cells (MSCs). The concentration ranges selected for each drug and investigational agent were based upon clinically achievable concentrations if the clinical Cmax of the agent was known.
Compounds. The drugs and investigational agents: alrizomadlin (APG-115; NSC831270), pelcitoclax (APG-1252; NSC835773), dasminapant (APG-1387;NSC834197), TAK-243 (NSC785004), copanlisib (NSC809693), olaparib (NSC753686), talazoparib (NSC767125), cobimetinib (NSC 768068), eltanexor (KPT-8602, NSC 794443), abemaciclib (NSC 768073), sotorasib (NSC818433), adagrasib (NSC 831453), MRTX-1133 (NSC 836407), Iadademestat (ORY1001, NSC 806812), and RMC-4630 (NSC839698), were obtained from the NCI Developmental Therapeutics Program Chemical Repository. The FDA-approved anticancer drug set is available from the Developmental Therapeutics Program at https://dtp.cancer.gov/organization/dscb/obtaining/available plates.htm. […] The stock solutions were prepared in dimethyl sulfoxide (DMSO, Sigma-Aldrich, St. Louis, MO, cat. D2650) at 800-fold the tested concentration and stored at -70 degrees C prior to their use. All drugs and investigational agents were tested over a range starting from a high concentration at or near the clinical Cmax and decreasing in half-log increments. If the clinical Cmax for an agent had not been determined, the highest concentration tested was 10 microM.
The patient-derived cancer (PDC) cell lines include five colon adenocarcinomas: 186277-243-T-J2-PDC, 616215-338-R-J1-PDC, 439559-082-T-J2-PDC, 463943-066-T-J2-PDC, and 519858-162-T-J1-PDC; three pancreatic carcinomas: 323965-272-R-J2-PDC, 521955-158-R6-J3-PDC, and 521955-158-R2-J5-PDC; two uterine sarcomas: 327498-152-R-J2-PDC and 993429-296-R-J1-PDC; two rhabdomyosarcomas: 755483-174-R-J1-PDC and 772245-204-R-J1-PDC; two soft tissue sarcomas: 126254-015-R-J1-PDC and 494315-158-R-J1-PDC; two malignant fibrous histiocytomas: 317291-083-R-J1-PDC and 596521-263-R-J1-PDC; two breast carcinomas: 171881-019-R-J1-PDC and 885512-296-R-J2-PDC; and one ovarian carcinoma: 6556581-035-R-J-PDC were obtained from the NCI PDMR, (https://pdmr.cancer.gov). The established cell lines HSSY-2 synovial sarcoma (RRID:CVCL 8719), SYO-1 synovial sarcoma (RRID:CVCL_7146), MPNST malignant peripheral neural sheath tumor were obtained from the Sloan Kettering Institute. The following established cell lines were purchased from the American Type Culture Collection (ATCC, Manassas, VA), Sor the received from the NCI repository:, PANC-1 pancreatic carcinoma (CRL-1469, RRID:CVCL_0480), OVCAR-5 ovarian carcinoma (RRID:CVCL_1628), OVCAR-8 ovarian carcinoma (RRID:CVCL_1629), , MCF-7 breast carcinoma (CRL-12584, RRID:CVCL_0031), MDA-MB-231 breast carcinoma (CRL-12532, RRID:CVCL_0062), NCI-H1876 small cell lung carcinoma (CRL-5902, RRID:CVCL_1503), NCI-H510A small cell lung carcinoma (HTB-184, RRID:CVCL_1565), NCI-H1417 (CRL-5869, RRID:CVCL_1469), and NCI-H196 small cell lung carcinoma (CRL-5823, RRID:CVCL_1509). Dr. Peter Houghton (Greehey Children's Cancer Research Institute, University of Texas Health Science Center, San Antonio, TX) provided Rh-18 rhabdomyosarcoma (RRID:CVCL_1659). Pooled donor human umbilical vein endothelial cells (HUVEC, Lonza, cat. CC-2519) and human mesenchymal stem cells (hMSC, Lonza, cat. PT-2501) were purchased from Lonza (Walkersville, MD).
Cell Culture. […]

Molecule `O=C(c1cc(Cc2n[nH]c(=O)c3ccccc23)ccc1F)N1CCN(C(=O)C2CC2)CC1` + CCN1C(C(=O)NC23CCC(C(=O)O)(CC2)CC3)C(c2cccc(Cl)c2F)C2(C(=O)Nc3cc(Cl)ccc32)C12CCCCC2 has an IC50 (second compound 0.00949 µM) of over 10 µM, an IC50 (second compound 0.03 µM) of over 10 µM and an IC50 (second compound 0.0949 µM) of over 10 µM. It also gave an IC50 (second compound 0.3 µM) of over 10 µM, an IC50 (second compound 0.949 µM) of over 10 µM and an IC50 (second compound 3 µM) of over 10 µM. The viability, T/C (second compound 0.00949 µM, first compound 0.0316 µM) was 88.1%, the viability, T/C (second compound 0.00949 µM, first compound 0.1 µM) was 93.6% and the viability, T/C (second compound 0.00949 µM, first compound 0.316 µM) was 96.2%. It also gave a viability, T/C (second compound 0.00949 µM, first compound 1 µM) of 93.6%, a viability, T/C (second compound 0.00949 µM, first compound 3.16 µM) of 114% and a viability, T/C (second compound 0.00949 µM, first compound 10 µM) of 104%. The viability, T/C (second compound 0.03 µM, first compound 0.0316 µM) was 103%, the viability, T/C (second compound 0.03 µM, first compound 0.1 µM) was 98.7% and the viability, T/C (second compound 0.03 µM, first compound 0.316 µM) was 102%. It also gave a viability, T/C (second compound 0.03 µM, first compound 1 µM) of 99.4%, a viability, T/C (second compound 0.03 µM, first compound 3.16 µM) of 102% and a viability, T/C (second compound 0.03 µM, first compound 10 µM) of 97.2%. The viability, T/C (second compound 0.0949 µM, first compound 0.0316 µM) was 100%, the viability, T/C (second compound 0.0949 µM, first compound 0.1 µM) was 94.9% and the viability, T/C (second compound 0.0949 µM, first compound 0.316 µM) was 99.5%. It also gave a viability, T/C (second compound 0.0949 µM, first compound 1 µM) of 104%, a viability, T/C (second compound 0.0949 µM, first compound 3.16 µM) of 102% and a viability, T/C (second compound 0.0949 µM, first compound 10 µM) of 93.9%. For the same molecule, the viability, T/C (second compound 0.3 µM, first compound 0.0316 µM) was 104%, the viability, T/C (second compound 0.3 µM, first compound 0.1 µM) was 97.9% and the viability, T/C (second compound 0.3 µM, first compound 0.316 µM) was 111%. The viability, T/C (second compound 0.3 µM, first compound 1 µM) was 103%, the viability, T/C (second compound 0.3 µM, first compound 3.16 µM) was 105% and the viability, T/C (second compound 0.3 µM, first compound 10 µM) was 93.2%. It also gave a viability, T/C (second compound 0.949 µM, first compound 0.0316 µM) of 101%, a viability, T/C (second compound 0.949 µM, first compound 0.1 µM) of 103% and a viability, T/C (second compound 0.949 µM, first compound 0.316 µM) of 110%. For the same molecule, the viability, T/C (second compound 0.949 µM, first compound 1 µM) was 102%, the viability, T/C (second compound 0.949 µM, first compound 3.16 µM) was 111% and the viability, T/C (second compound 0.949 µM, first compound 10 µM) was 101%. The viability, T/C (second compound 3 µM, first compound 0.0316 µM) was 116%, the viability, T/C (second compound 3 µM, first compound 0.1 µM) was 117% and the viability, T/C (second compound 3 µM, first compound 0.316 µM) was 107%. For the same molecule, the viability, T/C (second compound 3 µM, first compound 1 µM) was 126%, the viability, T/C (second compound 3 µM, first compound 3.16 µM) was 121% and the viability, T/C (second compound 3 µM, first compound 10 µM) was 114%.
`CCN1C(C(=O)NC23CCC(C(=O)O)(CC2)CC3)C(c2cccc(Cl)c2F)C2(C(=O)Nc3cc(Cl)ccc32)C12CCCCC2` (centres undefined) + Cc1c(S(C)(=O)=O)c(-c2cc(F)cc(N3CCN(c4ccc(NS(=O)(=O)c5ccc(NC(CCN6CCC(C(=O)OCCCP(=O)(O)O)CC6)CSc6ccccc6)c(S(=O)(=O)C(F)(F)F)c5)cc4)CC3)c2)c(-c2ccc(Cl)cc2)n1C(C)C was tested, and the IC50 (second compound 0.0316 µM) was over 3 µM, the IC50 (second compound 0.1 µM) was over 3 µM and the IC50 (second compound 0.316 µM) was over 3 µM. It also gave an IC50 (second compound 1 µM) of over 3 µM, an IC50 (second compound 3.16 µM) of over 3 µM and an IC50 (second compound 10 µM) of over 3 µM. For the same molecule, the viability, T/C (second compound 0.0316 µM, first compound 0.00949 µM) was 99.1%, the viability, T/C (second compound 0.0316 µM, first compound 0.03 µM) was 103% and the viability, T/C (second compound 0.0316 µM, first compound 0.0949 µM) was 93.7%. For the same molecule, the viability, T/C (second compound 0.0316 µM, first compound 0.3 µM) was 110%, the viability, T/C (second compound 0.0316 µM, first compound 0.949 µM) was 109% and the viability, T/C (second compound 0.0316 µM, first compound 3 µM) was 114%. It also gave a viability, T/C (second compound 0.1 µM, first compound 0.00949 µM) of 101%, a viability, T/C (second compound 0.1 µM, first compound 0.03 µM) of 108% and a viability, T/C (second compound 0.1 µM, first compound 0.0949 µM) of 106%. It also gave a viability, T/C (second compound 0.1 µM, first compound 0.3 µM) of 96.8%, a viability, T/C (second compound 0.1 µM, first compound 0.949 µM) of 124% and a viability, T/C (second compound 0.1 µM, first compound 3 µM) of 123%. It also gave a viability, T/C (second compound 0.316 µM, first compound 0.00949 µM) of 99.8%, a viability, T/C (second compound 0.316 µM, first compound 0.03 µM) of 96.3% and a viability, T/C (second compound 0.316 µM, first compound 0.0949 µM) of 105%. The viability, T/C (second compound 0.316 µM, first compound 0.3 µM) was 103%, the viability, T/C (second compound 0.316 µM, first compound 0.949 µM) was 117% and the viability, T/C (second compound 0.316 µM, first compound 3 µM) was 109%. The viability, T/C (second compound 1 µM, first compound 0.00949 µM) was 124%, the viability, T/C (second compound 1 µM, first compound 0.03 µM) was 107% and the viability, T/C (second compound 1 µM, first compound 0.0949 µM) was 106%. The viability, T/C (second compound 1 µM, first compound 0.3 µM) was 107%, the viability, T/C (second compound 1 µM, first compound 0.949 µM) was 118% and the viability, T/C (second compound 1 µM, first compound 3 µM) was 115%. For the same molecule, the viability, T/C (second compound 3.16 µM, first compound 0.00949 µM) was 115%, the viability, T/C (second compound 3.16 µM, first compound 0.03 µM) was 102% and the viability, T/C (second compound 3.16 µM, first compound 0.0949 µM) was 111%. For the same molecule, the viability, T/C (second compound 3.16 µM, first compound 0.3 µM) was 116%, the viability, T/C (second compound 3.16 µM, first compound 0.949 µM) was 118% and the viability, T/C (second compound 3.16 µM, first compound 3 µM) was 123%. It also gave a viability, T/C (second compound 10 µM, first compound 0.00949 µM) of 179%, a viability, T/C (second compound 10 µM, first compound 0.03 µM) of 189% and a viability, T/C (second compound 10 µM, first compound 0.0949 µM) of 184%. It also gave a viability, T/C (second compound 10 µM, first compound 0.3 µM) of 186%, a viability, T/C (second compound 10 µM, first compound 0.949 µM) of 172% and a viability, T/C (second compound 10 µM, first compound 3 µM) of 155%.

From PubChem BioAssay AID1963435 (Molecular Pharmacology Branch, DTP, NCI, 2024)
